Data from US9226505B2, “4-substituted 1-phenylpyrazole-3-carboxylic acid derivatives as agents against abiotic plant stress” (BAYER INTELLECTUAL PROPERTY GMBH, priority 2011, dated 2016).

Test system: BRSNS
Test: Drought stress test on crop plants, spray application, visual damage rating (BRSNS)
Assay type: in vivo, Brassica napus
Conditions: dosage 250 g/ha, mean of three results
Procedure: Seeds of monocotyledonous and dicotyledonous crop plants were laid out in sandy loam in wood-fiber pots, covered with soil and cultivated in a greenhouse under good growth conditions. The test plants were treated at the early leaf stage (BBCH10-BBCH13). To ensure uniform water supply before commencement of stress, the potted plants were supplied with the maximum amount of water immediately beforehand by dam irrigation and, after application, transferred into plastic inserts in order to prevent subsequent, excessively rapid drying. The compounds according to the invention, formulated in the form of wettable powders (WP), wettable granules (WG), suspension concentrates (SC) or emulsion concentrates (EC), were sprayed onto the green parts of the plants as an aqueous suspension at an equivalent water application rate of 600 I/ha with addition of 0.2% wetting agent (agrotin). Substance application is followed immediately by stress treatment of the plants (cold or drought stress). […]
After the recovery phase had ended, the intensities of damage were rated visually in comparison to untreated, unstressed controls of the same age (in the case of drought stress) or the same growth stage (in the case of cold stress). The intensity of damage was first recorded as a percentage (100%=plants have died, 0%=like control plants). […]

CCCn1cc(-c2cn(-c3ccc(F)cc3)nc2C(=O)OCC)cn1 [1-878, Ethyl 1-(4-fluorophenyl)-1-propyl-1H, 1′H-4,4′-bipyrazole-3-carboxylate]
EF (BRSNS), efficacy = percentage reduction in the intensity of damage: >5%
